Laboratory results published in PMC4967898, “Peptides interfering with protein-protein interactions in the ethylene signaling pathway delay tomato fruit ripening” (Scientific Reports, 2016).

Key:
[1] = target: T1, LeETR1 (Solanum lycopersicum, UniProt Q41342); experiment: MST NOP-1 binding to LeETR1; set-up: species or system tomato; details: 50 nM LeETR1 labeled with Alexa Fluor 488-Maleimide, NOP-1 3.8 nM to 31 μM, 50 mM Tris-HCl pH 8.0, 300 mM NaCl, 0.015% (w/v) Fos-Choline-16, 80% MST power, 1:1 stoichiometry, mean +/− standard deviation
T1 construct: made in house; host or cells: E. coli
T1 sequence (Q41342 1-754): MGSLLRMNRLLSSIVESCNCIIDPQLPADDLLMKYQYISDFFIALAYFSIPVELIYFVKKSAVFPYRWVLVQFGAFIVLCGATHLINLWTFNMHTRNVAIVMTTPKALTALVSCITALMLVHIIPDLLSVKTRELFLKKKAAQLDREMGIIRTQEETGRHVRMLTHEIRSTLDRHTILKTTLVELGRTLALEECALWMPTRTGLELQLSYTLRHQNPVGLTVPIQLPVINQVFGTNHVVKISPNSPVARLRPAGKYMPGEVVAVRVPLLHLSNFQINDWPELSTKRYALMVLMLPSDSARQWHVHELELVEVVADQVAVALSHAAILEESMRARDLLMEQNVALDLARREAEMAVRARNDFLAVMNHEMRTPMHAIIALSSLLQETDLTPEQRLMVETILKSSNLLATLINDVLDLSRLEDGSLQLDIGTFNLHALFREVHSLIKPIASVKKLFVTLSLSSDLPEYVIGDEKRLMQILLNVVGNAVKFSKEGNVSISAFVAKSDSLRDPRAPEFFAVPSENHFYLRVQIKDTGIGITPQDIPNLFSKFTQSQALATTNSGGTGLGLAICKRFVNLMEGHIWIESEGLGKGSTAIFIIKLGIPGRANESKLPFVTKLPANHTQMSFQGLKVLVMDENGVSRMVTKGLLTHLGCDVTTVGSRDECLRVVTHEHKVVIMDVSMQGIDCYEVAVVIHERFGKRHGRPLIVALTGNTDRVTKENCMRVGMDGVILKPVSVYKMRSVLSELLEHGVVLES
Text: To substantiate the inhibitory role of NOP-1 in LeEIN2-LeETR1 complex formation, NOP-1 binding to LeETR1 was studied by microscale thermophoresis (MST) as described in the Methods section. […] The Kd for the LeETR1-NOP1 interaction compares to the affinities of the EIN2-ETR1 interaction in Arabidopsis[10][11] and tomato (this work) emphasizing that the NOP-1 peptide can efficiently compete for ETR1 binding and disrupt EIN2-ETR1 complex formation.
Analysis of LeETR1-LeEIN2 complex formation, NOP-1 binding to LeETR1 and determination of the respective dissociation constants Kd was performed by MST[33][34][35]. For protein-protein interaction studies LeETR1 was labeled with Alexa Fluor 488 succinimidyl-ester (Life Technologies) in a buffer containing 50 mM potassium phosphate pH 8.0, 300 mM NaCl and 0.015% (w/v) Fos-Choline-16 according to the manufacturer’s protocol. […]
For quantification of NOP-1 binding to tomato receptor protein, recombinant LeETR1 was labeled with Alexa Fluor 488-Maleimide (Life Technologies) in a buffer containing 50 mM potassium phosphate pH 8.0, 300 mM NaCl, 0.015% (w/v) Fos-Choline-16 following the manufacturer’s protocol. […] Protein-peptide mixtures were transferred into glass capillaries and MST was measured with 80% MST power. […] The dissociation constant Kd was calculated according to a model assuming a 1:1 stoichiometry per binding partner.

[2] = NOP-1 stability by LC/MS; assay type: physicochemical; details: NOP-1 500 µg in 100 µl PBS pH 6.7, 0, 5, 10 and 15 days, room temperature; Supelcosil C18, 215 nm; identity by mass spectrometry
Description: Figure S4: Analysis of NOP-1 stability by liquid chromatography (LC).
Lyophilized NOP-1 (500 µg) was dissolved in 100 µl PBS pH 6.7, incubated for 0 days, 5 days, 10 days and 15 days at room temperatures and then applied to a Supelcosil C18 column (4.6x150 mm). The column was washed with 15 ml H2O with 0.1% TFA (buffer A).
Elution was performed with a linear gradient to 100% buffer B (100% acetonitrile with 0.1% TFA) over 30 min at a flow rate of 1 ml min-1. Detection was set to 215 nm. Identity of the peptide was confirmed by mass spectrometry. […]

[3] = system: living plants; details: cited from earlier work

CC(C)C[C@H](NC(=O)[C@H](CCCNC(=N)N)NC(=O)[C@H](CCCNC(=N)N)NC(=O)[C@H](CCCCN)NC(=O)[C@H](Cc1ccc(O)cc1)NC(=O)[C@H](CCCNC(=N)N)NC(=O)[C@H](CCCCN)NC(=O)[C@@H](N)CC(C)C)C(N)=O [NOP-1, LKRYKRRL-NH2]
Kd [1]: ~150 nM | stability of the peptide [2]: stable for several days at room temperature under normal conditions | inhibition of ethylene responses in living plants [3]: potent inhibitor of ethylene responses in living plants
